Patent publication US20240408169A1 (priority 2023, published 2024)
*1 amine or outer side, *2 acyl side, *3 side chain or, on linkers, in order; H or OH if unused. Where a SMILES comes first, the peptide text is derived from it. Bridges are numbered along the chain shown (N, C = ends). [ ]: non-standard residue; d: D form. The star is where a group is joined. NMe(hhhLys) = CN([C@@H](CCCCCCCN[*:3])C(=O)[*:2])[*:1]; Cyclopropanecarbonyl(1-CF3) = O=C(C1(C(F)(F)F)CC1)*; NMePhe(2,5-Cl2) = CN[C@@H](Cc1cc(Cl)ccc1Cl)C(=O)O; Pro(trans-4-F) = O=C(O)[C@@H]1C[C@@H](F)CN1; X155 = C[C@@](O)(C(=O)*)C(F)(F)F; Gly(cPr) = N[C@H](C(=O)O)C1CC1

Columns and labels:
OVCAR3 cells = assay: MTT proliferation assay, OVCAR3; type: cell-based; conditions: 5 days compound exposure, 1:3 serial dilution starting at 10 μM;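 also: compound given as an 8- or 10-point series, one day after plating, with exposure covering roughly 3-4 cell doublings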
CyclinE1/CDK2 = biological target: T1, CyclinE1/CDK2 (Homo sapiens, UniProt P24864); assay: Fluorescence Polarization (FP) competitive binding assay, Cyclin E1/Cdk2; conditions: 10 nM Cyclin E1/Cdk2, 2 nM FAM probe; average of 2-3 independent experiments; read-out: Cyclin E FP IC50;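 also: readings taken after two-hour equilibration at room temperature in HEPES buffer with NaCl, DTT, NP-40 and BSA, IC50 fitted from eight-concentration serial dilution series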
T1 construct: purchased Eurofins, discovery 14-475

CyclinA2/CDK2 = biological target: T2, CyclinA2/CDK2 (Homo sapiens, UniProt P20248); assay: Fluorescence Polarization (FP) competitive binding assay, Cyclin A2/Cdk2; conditions: 8 nM Cyclin A2/Cdk2, 2 nM FAM probe; average of 2-3 independent experiments; read-out: Cyclin A FP IC50;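 also: plates equilibrated two hours at room temperature before polarization reading, IC50 fitted from eight-concentration compound titration curves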
T2 construct: purchased CRELUX Protein Services

CyclinB1/CDK1 = biological target: T3, CyclinB1/CDK1 (Homo sapiens, UniProt P14635); assay: Fluorescence Polarization (FP) competitive binding assay, Cyclin B1/Cdk1; conditions: 10 nM Cyclin B1/Cdk1, 2 nM FAM probe; average of 2-3 independent experiments; read-out: Cyclin B FP IC50;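 also: fluorescence polarization read after equilibration at room temperature, with IC50 taken from serially diluted dose-response curves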
T3 construct: purchased Eurofins, discovery 14-450

NCI-H1048 cells = assay: MTT proliferation assay, NCI-H1048; type: cell-based; conditions: 5 days compound exposure, 1:3 serial dilution starting at 10 μM;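 also: Dose-response in 96-well plates over 8 or 10 concentration points, with exposure spanning 3-4 cell doublings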

SMILES	GI50 (OVCAR3 cells) [nM]	IC50 (CyclinE1/CDK2) [nM]	IC50 (CyclinA2/CDK2) [nM]	IC50 (CyclinB1/CDK1) [nM]	GI50 (NCI-H1048 cells) [nM]
CC(C)C[C@@H]1NC(=O)[C@@H](N(C)C(=O)[C@@H](NC(=O)[C@@H]2C[C@@H](F)CN2C(=O)C2(C(F)(F)F)CCC2)C2CC2)CC=CCCCCNC(=O)[C@H](Cc2cc(Cl)ccc2Oc2ncccn2)N(C)C1=O (single isomer, unassigned) [Example 156-P2]	100	240	350	20	90
CC[C@H](NC(=O)[C@@H]1C[C@@H](F)CN1C(=O)C1(C(F)(F)F)CC1)C(=O)N[C@H]1CC=CCCCCNC(=O)[C@H](Cc2cc(Cl)ccc2Cl)N(C)C(=O)[C@H](CC(C)C)NC1=O [Example 2]	410	100	110	20	380
CC(C)C[C@@H]1NC(=O)[C@@H](NC(=O)CNC(=O)[C@@H]2C[C@@H](F)CN2C(=O)C2(C(F)(F)F)CC2)CC=CCCCCNC(=O)[C@H](Cc2cc(Cl)ccc2Cl)N(C)C1=O [Example 3]	720	680	620	20	460
CC(C)C[C@@H]1NC(=O)[C@@H](NC(=O)[C@@H](NC(=O)[C@@H]2C[C@@H](F)CN2C(=O)C2(C(F)(F)F)CC(F)(F)C2)C2CC2)CC=CCCCCNC(=O)[C@H](Cc2cc(Cl)ccc2Cl)N(C)C1=O [Example 4]	60	100	90	20	120
CC(C)C[C@@H]1NC(=O)[C@@H](NC(=O)[C@@H](NC(=O)[C@@H]2C[C@@H](F)CN2C(=O)C2(C(F)(F)F)CC(F)(F)C2)C2CC2)CCCCCCCNC(=O)[C@H](Cc2cc(Cl)ccc2Cl)N(C)C1=O [Example 8]	30	100	30	20	20
CC(C)C[C@@H]1NC(=O)[C@@H](N(C)C(=O)[C@@H](NC(=O)[C@@H]2C[C@@H](F)CN2C(=O)C2(C(F)(F)F)CC2)C2CC2)CCCCCCCNC(=O)[C@H](Cc2cc(Cl)ccc2Cl)N(C)C1=O [Example 9] ({Cyclopropanecarbonyl(1-CF3)}-[Pro(trans-4-F)][Gly(cPr)][NMe(hhhLys)]L[NMePhe(2,5-Cl2)]; lactam 3-C)	110	400	250	20	80
CC(C)C[C@@H]1NC(=O)[C@@H](N(C)C(=O)[C@@H](NC(=O)[C@@H]2C[C@@H](F)CN2C(=O)[C@@](C)(O)C(F)(F)F)C2CC2)CCCCCCCNC(=O)[C@H](Cc2cc(Cl)ccc2Cl)N(C)C1=O [Example 10] (X155-[Pro(trans-4-F)][Gly(cPr)][NMe(hhhLys)]L[NMePhe(2,5-Cl2)]; lactam 3-C)	30	120	100	20	20
CC(C)C[C@@H]1NC(=O)[C@@H](NC(=O)[C@@H](NC(=O)[C@@H]2C[C@@H](F)CN2C(=O)C2(C(F)(F)F)CC2)C2CC2)CC=CCCCCN(C)C(=O)[C@H](Cc2cc(Cl)ccc2Cl)N(C)C1=O [Example 11]	210	100	170	20	80
CC(C)C[C@@H]1NC(=O)[C@@H](NC(=O)[C@@H](NC(=O)[C@@H]2C[C@@H](F)CN2C(=O)C2(C(F)(F)F)CC(F)(F)C2)C2CC2)CC=CCCCCN(C)C(=O)[C@H](Cc2cc(Cl)ccc2Cl)N(C)C1=O [Example 12]	40	100	60	20	30
CC[C@H](NC(=O)[C@@H]1C[C@@H](F)CN1C(=O)C1(C(F)(F)F)CC1)C(=O)N[C@H]1CC=CCCCCN(C)C(=O)[C@H](Cc2cc(Cl)ccc2Cl)N(C)C(=O)[C@H](CC(C)C)NC1=O [Example 13]	240	100	100	20	70
CC(C)C[C@@H]1NC(=O)[C@@H](N(C)C(=O)[C@@H](NC(=O)[C@@H]2C[C@@H](F)CN2C(=O)C2(C(F)(F)F)CC(F)(F)C2)C2CC2)CC=CCCCCNC(=O)[C@H](Cc2cc(Cl)ccc2C2=CCN(S(C)(=O)=O)CC2)N(C)C1=O [Example 23]	210	5470	120	20	180
CC(C)C[C@@H]1NC(=O)[C@@H](N(C)C(=O)[C@@H](NC(=O)[C@@H]2C[C@@H](F)CN2C(=O)C2(C(F)(F)F)CC(F)(F)C2)C2CC2)CC=CCCCCNC(=O)[C@H](Cc2cc(Cl)ccc2C2=CC[C@H](O)CC2)N(C)C1=O [Example 24]	170	1600	60	20	90
CC(C)C[C@@H]1NC(=O)[C@@H](N(C)C(=O)[C@@H](NC(=O)[C@@H]2C[C@@H](F)CN2C(=O)C2(C(F)(F)F)CC(F)(F)C2)C2CC2)CC=CCCCCNC(=O)[C@H](Cc2cc(Cl)ccc2-c2cnn(CCO)c2)N(C)C1=O [Example 28]	170	740	40	20	80
CC(C)C[C@@H]1NC(=O)[C@@H](N(C)C(=O)[C@@H](NC(=O)[C@@H]2C[C@@H](F)CN2C(=O)C2(C(F)(F)F)CC(F)(F)C2)C2CC2)CC=CCCCCN(C)C(=O)[C@H](Cc2cc(Cl)ccc2-c2cnn(C)c2)N(C)C1=O [Example 29]	70	690	30	20	40
CC(C)C[C@@H]1NC(=O)[C@@H](N(C)C(=O)[C@@H](NC(=O)[C@@H]2C[C@@H](F)CN2C(=O)C2(C(F)(F)F)CC(F)(F)C2)C2CC2)CC=CCCCCN(C)C(=O)[C@H](Cc2cc(Cl)ccc2-c2cncnc2)N(C)C1=O [Example 30]	140	5050	240	20	130
CC(=O)N1CC=C(c2ccc(Cl)cc2C[C@H]2C(=O)N(C)CCCCC=CC[C@H](N(C)C(=O)[C@@H](NC(=O)[C@@H]3C[C@@H](F)CN3C(=O)C3(C(F)(F)F)CC(F)(F)C3)C3CC3)C(=O)N[C@@H](CC(C)C)C(=O)N2C)CC1 [Example 31]	150	2200	30	20	80
CC(C)C[C@@H]1NC(=O)[C@@H](N(C)C(=O)[C@@H](NC(=O)[C@@H]2C[C@@H](F)CN2C(=O)C2(C(F)(F)F)CC(F)(F)C2)C2CC2)CC=CCCCCN(C)C(=O)[C@H](Cc2cc(F)ccc2-c2cnn(C)c2)N(C)C1=O [Example 37]	50	370	50	20	40
CC(C)C[C@@H]1NC(=O)[C@@H](N(C)C(=O)[C@@H](NC(=O)[C@@H]2C[C@@H](F)CN2C(=O)C2(C(F)(F)F)CC(F)(F)C2)C2CC2)CC=CCCCCN(C)C(=O)[C@H](Cc2cc(F)ccc2-c2cncnc2)N(C)C1=O [Example 38]	160	1760	180	20	60
CC(=O)N1CC=C(c2ccc(F)cc2C[C@H]2C(=O)N(C)CCCCC=CC[C@H](N(C)C(=O)[C@@H](NC(=O)[C@@H]3C[C@@H](F)CN3C(=O)C3(C(F)(F)F)CC(F)(F)C3)C3CC3)C(=O)N[C@@H](CC(C)C)C(=O)N2C)CC1 [Example 39]	210	940	60	20	90
CC(C)C[C@@H]1NC(=O)[C@@H](N(C)C(=O)[C@@H](NC(=O)[C@@H]2C[C@@H](F)CN2C(=O)C2(C(F)(F)F)CCC2)C2CC2)CC=CCCCCN(C)C(=O)[C@H](Cc2cc(F)ccc2-c2cncnc2)N(C)C1=O [Example 41]	130	810	160	20	100
CC(=O)N1CC=C(c2ccc(F)cc2C[C@H]2C(=O)N(C)CCCCC=CC[C@H](N(C)C(=O)[C@@H](NC(=O)[C@@H]3C[C@@H](F)CN3C(=O)C3(C(F)(F)F)CCC3)C3CC3)C(=O)N[C@@H](CC(C)C)C(=O)N2C)CC1 [Example 42]	210	440	40	20	70
